The source of these data is US9522888B2, “Substituted bicyclic compounds” (BRISTOL-MYERS SQUIBB COMPANY, priority 2014, dated 2016).

The test system of assay [1] is circulating lymphocytes. Kind of assay: Blood Lymphocyte Reduction (BLR) assay in rat. The conditions noted are these: oral; for Percent reduction vs. control at 24 hr post-dose: blood lymphocytes; for lymphocyte reduction: rodent BLR assay, 24 hours post-dose, versus vehicle treated group. The class given is in vivo, Lewis rats. As to the method: Blood Lymphocyte Reduction (BLR) Assay in Rodent:
Lewis rats or BALB/c mice were dosed orally with vehicle alone (polyethylene glycol 300, “PEG300”) or with test compounds. Compounds were dosed as a solution or suspension in the vehicle, adjusted to reflect the free amount of test article in the event that salt forms are utilized. Blood was drawn at 24 hr and blood lymphocyte counts were determined on an ADVIA 120 Hematology Analyzer (Siemens Healthcare Diagnostics). The results were measured as a reduction in the percentage of circulating lymphocytes as compared to the vehicle treated group at the time of measurement. The results represent the average results of all animals within each treatment group (n=2-4).

Assay [2] has as its target S1P1 (membranes prepared from S1P1/CHO cells) (Homo sapiens (Human), UniProt P21453). Put plainly: Receptor [35S] GTPγS binding assay (S1P1 GTPγS). The class given is biochemical. Particulars: phosphate examples; read-out: S1P1 GTPγS. In short, it runs like this:
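Agonist-stimulated [35S]GTPγS binding (0.2 nM final) to S1P1/CHO membranes, 3 μg protein/well, measured after 45 min at room temperature. Buffer contained 10 μM GDP, saponin and fatty-acid-free BSA at pH 7.5. Compounds tested as 11-point 3-fold series; bound label captured on filters, scintillation-counted, EC50 reported.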
For orientation: GTPγS is a poorly hydrolysed GTP analogue; its binding reports G protein activation.

Assay [3] addresses hS1P1/CHO cells (Homo sapiens (Human), UniProt P21453). Kind of assay: hS1P1 ERK phosphorylation (S1P1 pERK). The class given is cell-based. Particulars: phosphate examples. The essentials:
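Agonism read as ERK phosphorylation (SureFire pERK) in hS1P1/CHO lysates, normalised to the maximal effect of 10 μM S1P. Cells were held 2 h in serum-free medium, then treated with compound for 7 min at 37° C. in HBSS/20 mM HEPES.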

Assay [4] addresses human S1P1 (Homo sapiens (Human), UniProt P21453). Kind of assay: S1P1 binding assay (33P-S1P radioligand competition, CHO cell membranes). The conditions noted are these: phosphate examples; read-out: S1P1 Binding. The essentials:
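Radioligand is 33P-S1P, competing for membranes from human S1P1-expressing CHO cells. Membranes resuspended in 50 mM HEPES pH 7.5, 100 mM NaCl, 1 mM MgCl2, 2 mM EDTA.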

Assay [5] addresses S1P3 (membranes prepared from EDG3-Gal5-bla HEK293T cells) (Homo sapiens (Human), UniProt Q99500). Put plainly: Receptor [35S] GTPγS binding assay (S1P3 GTPγS). The class given is biochemical. The conditions noted are these: phosphate examples; read-out: S1P3 GTPγS. In short, it runs like this: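 Membranes (3 μg protein/well) from S1P1/CHO cells or EDG3-Gal5-bla HEK293T cells (S1P3) were incubated 45 min at room temperature with 0.2 nM final [35S]GTPγS in HEPES pH 7.5 buffer with 10 μM GDP, MgCl2 and saponin. Bound label counted after filtration; EC50 from 11-point, 3-fold dilutions.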

Chain of hS1P1/CHO cells (P21453 whole entry): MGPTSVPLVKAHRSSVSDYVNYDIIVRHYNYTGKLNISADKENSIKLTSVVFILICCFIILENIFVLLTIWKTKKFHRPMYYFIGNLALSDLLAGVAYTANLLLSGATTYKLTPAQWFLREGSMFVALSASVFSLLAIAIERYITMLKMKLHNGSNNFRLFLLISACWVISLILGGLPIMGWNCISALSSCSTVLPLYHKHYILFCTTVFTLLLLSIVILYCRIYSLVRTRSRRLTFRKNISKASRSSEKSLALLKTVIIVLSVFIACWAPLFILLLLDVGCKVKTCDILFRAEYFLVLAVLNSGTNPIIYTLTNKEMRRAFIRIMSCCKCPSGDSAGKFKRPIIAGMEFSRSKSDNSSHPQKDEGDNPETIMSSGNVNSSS
Chain of S1P1 (membranes prepared from S1P1/CHO cells) (P21453 whole entry): as above
Chain of human S1P1 (P21453 whole entry): as above
Chain of S1P3 (membranes prepared from EDG3-Gal5-bla HEK293T cells) (Q99500 whole entry): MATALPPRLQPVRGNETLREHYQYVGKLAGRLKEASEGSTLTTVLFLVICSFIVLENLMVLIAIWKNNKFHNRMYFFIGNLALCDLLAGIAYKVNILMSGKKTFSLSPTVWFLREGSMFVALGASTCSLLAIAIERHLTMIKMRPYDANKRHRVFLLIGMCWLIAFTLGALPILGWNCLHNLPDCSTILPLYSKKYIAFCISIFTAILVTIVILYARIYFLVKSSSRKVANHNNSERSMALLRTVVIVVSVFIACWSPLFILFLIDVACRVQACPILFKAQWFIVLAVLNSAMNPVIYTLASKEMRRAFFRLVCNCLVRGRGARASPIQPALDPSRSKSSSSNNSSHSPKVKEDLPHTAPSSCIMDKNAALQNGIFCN

Regarding `COc1cccc(CC[C@H]2CCc3cc([C@H]4CC[C@](N)(CO)C4)ccc3C2)c1` [Example 676, ((1R,3S)-1-amino-3-((S)-6-(3-methoxyphenethyl)-5,6,7,8-tetrahydronaphthalen-2-yl)cyclopentyl) methanol], the “Percent reduction vs. control at 24 hr post-dose” value (“Percent reduction vs. control” for short) in assay [1] (0.1 mg/kg) was found to be 63%.
In the case of `COc1cccc(CC[C@@H]2CCc3cc([C@H]4CC[C@](N)(CO)C4)ccc3C2)c1` [Example 677, ((1R,3S)-1-amino-3-((R)-6-(3-methoxyphenethyl)-5,6,7,8-tetrahydronaphthalen-2-yl)cyclopentyl)methanol], the “Percent reduction vs. control” value in assay [1] (0.05 mg/kg) stood at 49%.
Turning to `COCCCCCC1CCc2cc([C@@H]3CC[C@](N)(CO)C3)ccc2C1` (single isomer, unassigned) [Example 674], the “Percent reduction vs. control” value in assay [1] (0.1 mg/kg) is listed as 30%; in assay [1] (0.3 mg/kg), 73%. Besides, in assay [1] (0.1 mg/kg), the lymphocyte reduction is 30%.
Regarding `COc1cccc(OC[C@H]2CCc3cc([C@H]4CC[C@](N)(CO)C4)ccc3C2)c1` [Example 685, ((1R,3S)-1-amino-3-((S)-6-((3-methoxyphenoxy)methyl)-5,6,7,8-tetrahydronaphthalen-2-yl)cyclopentyl)methanol], the “Percent reduction vs. control” value in assay [1] (0.1 mg/kg) is 55%.
For `CCOCCC[C@H]1CCc2cc([C@H]3CC[C@](N)(CO)C3)ccc2C1` [Example 678, ((1R,3S)-1-amino-3-((R)-6-(3-ethoxypropyl)-5,6,7,8-tetrahydronaphthalen-2-yl)cyclopentyl)methanol], in assay [1] (0.1 mg/kg), the “Percent reduction vs. control” value was found to be 16% and the lymphocyte reduction turned out to be 16%. The “Percent reduction vs. control” value in assay [1] (0.3 mg/kg) worked out at 53%.
As for `COc1ccccc1CC[C@H]1CCc2cc([C@H]3CC[C@](N)(CO)C3)ccc2C1` [Example 682, ((1R,3S)-1-amino-3-((R)-6-(2-methoxyphenethyl)-5,6,7,8-tetrahydronaphthalen-2-yl)cyclopentyl)methanol], in assay [1] (0.1 mg/kg), the “Percent reduction vs. control” value turned out to be 17% and the lymphocyte reduction amounted to 17%. Further, the “Percent reduction vs. control” value in assay [1] (2.0 mg/kg) came out at 83%.
Turning to `CCCCOC[C@H]1CCc2cc([C@H]3CC[C@](N)(COP(=O)(O)O)C3)ccc2C1` [compound 446], the EC50 in assay [2] is 100 to 1000 nM; in assay [3], < 10 nM; in assay [5] it was > 625 nM. Further, the IC50 in assay [4] is 10 to 100 nM.
Turning to `COCCCCCC1CCc2cc([C@@H]3CC[C@](N)(CO)C3)ccc2C1` (single isomer, unassigned) [Example 675], in assay [1] (0.1 mg/kg), the “Percent reduction vs. control” value was 63% and the lymphocyte reduction was found to be 63%.
Consider `CC/C=C\CC[C@@H]1CCc2cc([C@H]3CC[C@](N)(COP(=O)(O)O)C3)ccc2C1` [compound 651], for which the EC50 in assay [2] was 10 to 100 nM; in assay [3], 10 to 100 nM; in assay [5] it was > 625 nM. Moreover, the IC50 in assay [4] lay in the range of 10 to 100 nM.
Regarding `CCCCCCNC(=O)OC1CCc2cc([C@H]3CC[C@@](N)(COP(=O)(O)O)C3)ccc2C1` (some centres unmarked) [compound 626], the values for the EC50 in assay [2], in assay [3] and in assay [5] were 10 to 100 nM, < 10 nM and > 625 nM, respectively. Further, the IC50 in assay [4] was 10 to 100 nM.
In the case of `COc1cccc(/C=C/[C@@H]2CCc3cc([C@H]4CC[C@](N)(COP(=O)(O)O)C4)ccc3C2)c1` [compound 643], the EC50 in assay [2] is 10 to 100 nM; in assay [3] it was 10 to 100 nM; in assay [5], > 625 nM. In assay [4], the IC50 is < 10 nM.
With `C=CCC/C=C/[C@@H]1CCc2cc([C@H]3CC[C@](N)(COP(=O)(O)O)C3)ccc2C1` [compound 639], the EC50 in assay [2] was 10 to 100 nM; in assay [3], 10 to 100 nM; in assay [5], > 625 nM. For the same compound, the IC50 in assay [4] lay in the range of 10 to 100 nM.
Take `COC(C)CCCCC1CCc2cc([C@H]3CC[C@](N)(COP(=O)(O)O)C3)ccc2C1` (single isomer, unassigned) [compound 611]: the values for the EC50 in assay [2], in assay [3] and in assay [5] were < 10 nM, < 10 nM and > 625 nM, respectively. The IC50 in assay [4] is < 10 nM.
As for `COc1cccc(OCC[C@@H]2CCc3cc([C@H]4CC[C@](N)(COP(=O)(O)O)C4)ccc3C2)c1` [compound 544], the EC50 in assay [2] was 100 to 1000 nM; in assay [3], < 10 nM; in assay [5], > 625 nM. Besides, the IC50 in assay [4] lay in the range of 10 to 100 nM.
Take `CCCCCC1CCc2cc([C@H]3CC[C@](N)(COP(=O)(O)O)C3)ccc2C1` (some centres unmarked) [compound 575]: the EC50 was 10 to 100 nM in assay [2], < 10 nM in assay [3] and > 625 nM in assay [5]. Further, the IC50 in assay [4] was in the range of 10 to 100 nM.
`CC(C)OCCCC[C@H]1CCc2cc([C@H]3CC[C@](N)(COP(=O)(O)O)C3)ccc2C1` [compound 610]: the EC50 was < 10 nM in assay [2], < 10 nM in assay [3] and > 100 nM in assay [5]. For the same compound, the IC50 in assay [4] is 10 to 100 nM.
`CCCCC1CCc2cc([C@H]3CC[C@](N)(COP(=O)(O)O)C3)ccc2C1=O` (some centres unmarked) [compound 635]: the figures for the EC50 in assay [2], in assay [3] and in assay [5] were 10 to 100 nM, < 10 nM and > 625 nM, respectively. In addition, the IC50 in assay [4] is < 10 nM.
Take `N[C@]1(COP(=O)(O)O)CC[C@H](c2ccc3c(c2)CC[C@H](CSCCc2ccccc2)C3)C1` [compound 521]: the EC50 is < 10 nM in assay [2], 10 to 100 nM in assay [3] and > 50 nM in assay [5]. Besides, the IC50 in assay [4] was < 10 nM.
For the compound `COCCCCC[C@@H]1CCc2cc(C3CCC(N)(COP(=O)(O)O)C3)ccc2C1` (single isomer, unassigned) [compound 599], the figures for the EC50 in assay [2], in assay [3] and in assay [5] were < 10 nM, < 10 nM and > 625 nM, respectively. Moreover, the IC50 in assay [4] was < 10 nM.
Consider `C/C=C\CCCC[C@H]1CCc2cc([C@H]3CC[C@](N)(COP(=O)(O)O)C3)ccc2C1` [compound 660], for which the results for the EC50 in assay [2], in assay [3] and in assay [5] were < 10 nM, 10 to 100 nM and > 625 nM, respectively. Further, the IC50 in assay [4] is < 10 nM.
`N[C@]1(COP(=O)(O)O)CC[C@H](c2ccc3c(c2)CC[C@@H](CSCCc2ccccn2)C3)C1` [compound 524]: the figures for the EC50 in assay [2], in assay [3] and in assay [5] were < 10 nM, < 10 nM and > 625 nM, respectively. Further, in assay [4], the IC50 lay within 10 to 100 nM.
For the compound `CN(C)CCCCC[C@@H]1CCc2cc([C@H]3CC[C@](N)(COP(=O)(O)O)C3)ccc2C1` [compound 561], the EC50 is 100 to 1000 nM in assay [2], 10 to 100 nM in assay [3] and > 625 nM in assay [5]. In addition, the IC50 in assay [4] lay within 100 to 1000 nM.
Regarding `CCCCCO[C@H]1CCc2cc([C@H]3CC[C@](N)(COP(=O)(O)O)C3)ccc2C1` [compound 431], the EC50 was 100 to 1000 nM in assay [2], < 10 nM in assay [3] and > 625 nM in assay [5]. Moreover, the IC50 in assay [4] fell in the range of 10 to 100 nM.
Consider `COc1ccc(SC[C@@H]2CCc3cc([C@H]4CC[C@](N)(COP(=O)(O)O)C4)ccc3C2)cc1OC` [compound 531], for which the values for the EC50 in assay [2], in assay [3] and in assay [5] were 10 to 100 nM, 10 to 100 nM and > 625 nM, respectively. Also, the IC50 in assay [4] lay within 10 to 100 nM.
Regarding `CCCC[C@@H]1CCCC2(CCc3cc([C@H]4CC[C@](N)(COP(=O)(O)O)C4)ccc3C2)O1` (some centres unmarked) [compound 633], the EC50 was 100 to 1000 nM in assay [2], < 10 nM in assay [3] and > 625 nM in assay [5]. For the same compound, the IC50 in assay [4] was 10 to 100 nM.
